# Experimental data reported in paper PMC11538690, “Lysosome‐Targeted Bifunctional Therapeutics Induce Autodynamic Cancer Therapy” (Advanced Science, 2024).
# What was measured:
# [1] = Photostability test under 760 nm laser; type: physicochemical; details: all tested solvents, up to 4 h
# Method: Photostability assay was conducted to compare ZW800‐1C with ZWPro in PBS and also evaluated ZWPro in distilled water and 10% FBS in PBS exposed to continuous irradiation using a 760 nm laser diode at 4 mW cm^−2, with white light (400–650 nm) at 40 000 lux and imaged up to 4 h. The fluorescence intensity (FI) signal (%) was calculated by measured values with ImageJ version 1.53t using images captured at each time point. Fluorescence values of the quenching assay were conducted at different concentration points at 0 and 4 h to determine the quenching concentration and to assess any significant photodegradation or photobleaching effects.
# The data, presented as mean ± SD, assessed the fluorescence image by measuring regions of interest (ROI) and comparing fluorescence intensity against the initial fluorescence signal.
# Figure S3. Optical property characterization of the ZWPro (a) Absorbance and Fluorescence spectra of ZWPro and optical properties of Pro, ZW800-1C, and ZWPro. (b) Stability test of ZWPro with PBS and 10% FBS in PBS until 24 h at 37 °C incubator. (c) Fluorescence image and value are used to determine quenching concentration under a 760nm channel of different concentrations of ZWPro depending on time. Photostability test of (d) ZW800-1C and ZWPro in PBS. (e) Photostability test of ZWPro in different solvents. DW: Distilled water, 10% FBS: Fetal bovine serum in PBS. […]
# HT29 cells [2] = experiment: WST-8 cytotoxicity assay; type: cell-based, human; details: 5, 10 and 20 µM, 24 h (Figure S4); n = 5
# Method: (§1) Figure 2 In vitro cellular evaluations of ZWPro in cancer cells. a) Cytotoxicity assay showing HT29, MCF7, L929, and NIH3T3 cells treated with 20 µM of ZW and ZWPro for 2 and 24 h, respectively, followed by an assessment of cell viability using the water‐soluble tetrazolium assay (n = 5, mean ± s.e.m.). b) Cellular uptake and intracellular endosomal localization of ZW and ZWPro were observed by treating HT29 and L929 cells with 20 µM of ZW and ZWPro. […] The internalization index was determined in 2–9 photographic areas (ns, not significant, *p < 0.05 based on two‐way analysis of variance followed by Bonferroni's multiple comparison test). c) Inhibition assay of cellular uptake of ZWPro to determine the entry mechanisms in HT29 cells. […] The co‐localizing pixels (%) were calculated by dividing the area of overlap between ZWPro and LysoTracker by the total area of the LysoTracker, respectively. […]
# (§2) To evaluate the cytotoxicity of ZW and ZWPro in cancer and normal cells, HT29, MCF7, L929, and NIH 3T3 cells were collected by trypsinization and resuspended in 96‐well plates at a concentration of 10 000 cells/well in fresh growth media and incubated for 1 d at 37 °C under 5% CO2 conditions. […] Absorption was subsequently measured at 450 nm on a microplate reader (Thermo Scientific, Varioskan LUX multimode). […]
# MCF7 cells [3] = experiment: WST-8 cytotoxicity assay; type: cell-based; details: 5, 10 and 20 µM, 24 h (Figure S4); n = 5
# Method: as §1, §2
# L929 cells [4] = experiment: WST-8 cytotoxicity assay; type: cell-based, mouse; details: 5, 10 and 20 µM, 24 h (Figure S4); n = 5
# Method: (§3) Figure 2 In vitro cellular evaluations of ZWPro in cancer cells. a) Cytotoxicity assay showing HT29, MCF7, L929, and NIH3T3 cells treated with 20 µM of ZW and ZWPro for 2 and 24 h, respectively, followed by an assessment of cell viability using the water‐soluble tetrazolium assay (n = 5, mean ± s.e.m.). b) Cellular uptake and intracellular endosomal localization of ZW and ZWPro were observed by treating HT29 and L929 cells with 20 µM of ZW and ZWPro. […] The internalization index was determined in 2–9 photographic areas (ns, not significant, *p < 0.05 based on two‐way analysis of variance followed by Bonferroni's multiple comparison test). c) Inhibition assay of cellular uptake of ZWPro to determine the entry mechanisms in HT29 cells. Cultured cells were incubated with bromsulphthalein for 20 min and then incubated with ZWPro (20 µM) in media for 15 min. Data are presented as means ± standard deviations (n = 7–8) **p < 0.01 based on Welch's t‐test. d) Findings from HT29 human colorectal adenocarcinoma cells and L929 fibroblast cell lines co‐stained with the lysosome marker LysoTracker Green. Co‐localization occurs at specific time intervals during imaging. The co‐localizing pixels (%) were calculated by dividing the area of overlap between ZWPro and LysoTracker by the total area of the LysoTracker, respectively. Scale bars: 10 µm.
# (§4) To evaluate the cytotoxicity of ZW and ZWPro in cancer and normal cells, HT29, MCF7, L929, and NIH 3T3 cells were collected by trypsinization and resuspended in 96‐well plates at a concentration of 10 000 cells/well in fresh growth media and incubated for 1 d at 37 °C under 5% CO2 conditions. After the cells were completely attached to the walls, the original medium was discarded and replaced with a 200 µL fresh culture medium which contained different concentrations of ZW and ZWPro. Cells were then cultured in a constant temperature incubator for 2 and 24 h. EZ‐Cytox solution (10%) was then added to each well, and the plates were incubated at 37 °C in a 5% CO2 incubator for 2 h in the dark. Cells were then exposed to a digital orbital shaker (Scilab Instruments Co, No. SSO‐2D) at 200 rpm. Absorption was subsequently measured at 450 nm on a microplate reader (Thermo Scientific, Varioskan LUX multimode). […] Statistical analysis was conducted using the software GraphPad Prism 8.
# NIH 3T3 cells = experiment: WST-8 cytotoxicity assay; type: cell-based, mouse; details: 5, 10 and 20 µM, 24 h (Figure S4); n = 5
# Method: as §3, §4
# HT29 cells [5] = experiment: Cellular uptake by fluorescence microscopy; type: cell-based, human; details: 20 µM, 2 h, 37 °C; NIR fluorescence microscopy
# Method: (§5) Figure 2 In vitro cellular evaluations of ZWPro in cancer cells. a) Cytotoxicity assay showing HT29, MCF7, L929, and NIH3T3 cells treated with 20 µM of ZW and ZWPro for 2 and 24 h, respectively, followed by an assessment of cell viability using the water‐soluble tetrazolium assay (n = 5, mean ± s.e.m.). b) Cellular uptake and intracellular endosomal localization of ZW and ZWPro were observed by treating HT29 and L929 cells with 20 µM of ZW and ZWPro. […] The internalization index was determined in 2–9 photographic areas (ns, not significant, *p < 0.05 based on two‐way analysis of variance followed by Bonferroni's multiple comparison test). c) Inhibition assay of cellular uptake of ZWPro to determine the entry mechanisms in HT29 cells. Cultured cells were incubated with bromsulphthalein for 20 min and then incubated with ZWPro (20 µM) in media for 15 min. […] The co‐localizing pixels (%) were calculated by dividing the area of overlap between ZWPro and LysoTracker by the total area of the LysoTracker, respectively. […]
# (§6) Fluorescence microscopic assessments were performed to compare the intracellular uptake of ZW and ZWPro in cancerous and normal cells. […] The fluorescent intensity of each cell was measured using ImageJ (version 1.51j8, National Institutes of Health, Bethesda, MD, USA). The outline of each cell was determined on a phase‐contrast image.
# L929 cells [6] = experiment: Cellular uptake by fluorescence microscopy; type: cell-based, mouse; details: 20 µM, 2 h, 37 °C; NIR fluorescence microscopy
# Method: as §5, §6
# MCF7 cells [7] = experiment: Cellular uptake by fluorescence microscopy; type: cell-based; details: 20 µM, 2 h, 37 °C; fluorescent microscopy
# Method: (§7) Fluorescence microscopic assessments were performed to compare the intracellular uptake of ZW and ZWPro in cancerous and normal cells. Two sets of cathepsin B‐expressing cancer cells (HT29 and MCF7) and 2 sets of normal cells (L929 and NIH3T3) were seeded in a confocal dish and incubated at 37 °C for 1 d before treatment. Subsequently, 20 µM ZWPro and ZW were added to the cells for 2 h. Subsequently, 50 nM of LysoTracker Green (a fluorescent dye that selectively labels lysosomes) was added for 30 min. Following incubation with the dye, the cells were resuspended with fresh media after they were rinsed 3 times with 1X PBS to remove any remaining dye, and imaging was performed. To determine the role of organic anion transporter peptides (OATPs) in the ZWPro uptake process, HT29 cells were pretreated with BSP (250 µM, Sigma–Aldrich, 167 207) for 20 min in the inhibition assay. Cells were then incubated with 20 µM of ZWPro at 37 °C for 15 min. After washing, cell images were obtained. Images were obtained using a Nikon Eclipse inverted microscope, DS‐Ri2, or DS‐Qi2 (Ex/Em, 754/774 nm; exposure time, 2 s). The fluorescent intensity of each cell was measured using ImageJ (version 1.51j8, National Institutes of Health, Bethesda, MD, USA). The outline of each cell was determined on a phase‐contrast image.
# (§8) Figure S5. Cellular uptake and intracellular localization of ZW and ZWPro. […]
# NIH3T3 cells = experiment: Cellular uptake by fluorescence microscopy; type: cell-based, mouse; details: 20 µM, 2 h, 37 °C; fluorescent microscopy
# Method: as §7, §8
# HT29 tumor-bearing mice [8] = experiment: Time-dependent in vivo NIR tumor imaging and biodistribution; details: 20 nmol i.v., real-time NIR fluorescence imaging
# Source text: Figure 4 In vivo, tumor growth inhibition and studies in tumor‐induced mice subcutaneously injected with HT29 cells and treated with ZWPro. a) Schematic of the treatment schedule and experimental design of PBS, ZW, and ZWPro. Biodistribution and pharmacokinetic (PK) parameters of targeted ZW and ZWPro in normal mice. PK parameters of ZW and ZWPro (0.3 µmol kg^−1) (t1/2α; distribution half‐life, t1/2β; elimination half‐life, AUC; area under the curve, Vd volume of distribution, and urinary excretion (% injected dose, %ID)) were calculated using the software Prism 9. Urinary excretion occurred at 48 h post‐injection (n = 2–3 per group, mean ± s.e.m.). (b) In total, 20 nmol of each compound was injected into BLAB/C nude mice (weights = 20–25 g) and time‐dependent imaging was performed post‐injection. c) Color and NIR fluorescence in vivo images of ZW and ZWPro (0.3 µmol kg^−1) were taken at different time intervals. d) Tumor‐to‐background (TBR) ratios of tumors (white dotted circles in (c)) compared with muscles obtained from at each time point; and e) signal‐to‐background (SBR) outcomes were calculated using NIR images of resected organs at 48 h post‐injection. (Exposure time = 100 ms, n = 3, mean ± s.e.m.) The SBR was calculated by the fluorescence intensity of each organ (Or) against the system background (Exposure time = 1000 ms, n = 3, mean ± s.e.m.). […]
# HT29 tumor-bearing mice [9] = experiment: In vivo tumor reduction test; details: i.v. 50 nmol (9.5 mg kg−1) twice; weighed every other day for 30 days; versus control group
# Method: Owing to the cancer‐specific cytotoxicity of ZWPro, the in vivo tumor targetability and theranostic capacity of ZWPro were evaluated in HT29 tumor‐bearing mice. Preliminary studies were conducted to determine the optimal dosage of ZWPro to achieve effective anticancer activity. […] To investigate the antitumor impact, mice were intravenously injected with PBS (150 µL) (control group), and with ZWPro (150 µL) or ZW (150 µL, 50 nmol at 9.5 mg k^−1g). […] The tumor size increased slightly after the treatment on d 0. […] Stable mouse body weights were observed across all experimental groups. After 30 d of treatment with ZWPro, tumors were smaller than those in the ZW and PBS groups (Figure 4g).
# Figure 4 In vivo, tumor growth inhibition and studies in tumor‐induced mice subcutaneously injected with HT29 cells and treated with ZWPro. a) Schematic of the treatment schedule and experimental design of PBS, ZW, and ZWPro. […] PK parameters of ZW and ZWPro (0.3 µmol kg^−1) (t1/2α; distribution half‐life, t1/2β; elimination half‐life, AUC; area under the curve, Vd volume of distribution, and urinary excretion (% injected dose, %ID)) were calculated using the software Prism 9. […] (Exposure time = 100 ms, n = 3, mean ± s.e.m.) The SBR was calculated by the fluorescence intensity of each organ (Or) against the system background (Exposure time = 1000 ms, n = 3, mean ± s.e.m.). […]
# [10] = cited from earlier work
# Source text: The zwitterionic fluorophore ZW (emitting NIR fluorescence at 800 nm) was synthesized as reported previously.^[ [6] ^] […] To create the ZWPro conjugate, ZW (1.2 equiv.) was covalently attached to Pro using N‐Hydroxysuccinimide (NHS) ester and led to a stable amide bond formation (Figure 1b). Pro peptides were en ...
Compound,photostability (in words) [1],toxicity (in words) (HT29 cells [2]),toxicity (in words) (MCF7 cells [3]),toxicity (in words) (L929 cells [4]),toxicity (in words) (NIH 3T3 cells),cellular uptake / internalization (in words) (HT29 cells [5]),cellular uptake / internalization (in words) (L929 cells [6]),cellular uptake / internalization (in words) (MCF7 cells [7]),cellular uptake / internalization (in words) (NIH3T3 cells),tumor targeting / accumulation (in words) (HT29 tumor-bearing mice [8]),body weight change (in words) (HT29 tumor-bearing mice [9]),plasma protein binding (in words) [10]
"CC1(C)C(/C=C/C2=C(c3ccc(CCC(=O)O)cc3)C(=C/C=C3/N(CCC[N+](C)(C)C)c4ccc(S(=O)(=O)O)cc4C3(C)C)/CCC2)=[N+](CCC[N+](C)(C)C)c2ccc(S(=O)(=O)O)cc21 [ZW, ZW800‐1C]",strong photostability,negligible toxicity,negligible toxicity,negligible toxicity,negligible toxicity,not internalized,not internalized,does not show internalization,does not show internalization,no tumor specificity or cell penetration ability,neither ZWPro nor ZW resulted in weight loss,low‐plasma protein binding
Protamine,,negligible toxicity,negligible toxicity,negligible toxicity,negligible toxicity,,,,,,,
